# Source: patent publication US20020028938A1, “Prostaglandin endoperoxide H synthase biosynthesis inhibitors” (priority 1997, published 2002)
# Key:
# [1] = target: T1, Human Whole Platelet Cyclooxygenase-1 (Homo sapiens, UniProt P23219); assay: Human Whole Platelet Cyclooxygenase-1 assay (HWPX); assay type: cell-based; conditions: for IC50: read-out: HWPX IC50 (parenthetical value)
# T1 construct: from tissue; host or cells: human blood: isolated platelets (A4) or heparinised whole blood (A9)
# Summary of the method: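 Washed platelets from healthy-donor ACD blood were pre-incubated with compound for 10 min, then stimulated with calcium ionophore A23187 (8.8 μM final) for 10 min. Reaction stopped with cold 6 mM EDTA; thromboxane in supernatants quantified with a commercial kit.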
# [2] = tested on: air pouch prostaglandin biosynthesis (Cox-2); assay: Carrageenan induced air pouch prostaglandin biosynthesis model (CAP); assay type: in vivo, rat; conditions: for inhibition in vivo at 3 mg/kg: 4 h, read-out: CAP % Inhib. @ 3 mpk; for ED50: Rattus norvegicus
# Summary of the method: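 Male Sprague Dawley rats with dorsal air pouches (20 mL air day 0, 10 mL day 3) received 0.2% lambda carrageenan in saline into the pouch on day 7. Compounds dosed at 0.1 to 10 mg/kg 30 min before carrageenan; pouch lavaged 4 h later, prostaglandins measured by EIA. Percent inhibition versus control mean; ED50 by linear regression.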
# [3] = tested on: carrageenan induced paw edema; assay: Carrageenan induced paw edema (CPE) in rats; assay type: in vivo; conditions: rat; for inhibition in vivo at 10 mg/kg: read-out: CPE % Inhib. @ 10 mpk
# Method: For oral administration, test compounds were suspended on the day of use in 100% polyethyleneglycol (PEG 400) with a motorized homogenizer equipped with a Teflon-coated pestle (TRI-R Instrument, Jamaica, N.Y.).
# To compare the mean responses of the treatment groups, analysis of variance was applied. Percent inhibition values were determined by comparing the individual treatment mean values to the mean of the control group. Linear regression was used to estimate IC50's/ED50's in appropriate assays.
# Hingpaw edema was […] in male rats as described by Winter et al., Proc. Soc. Exp. Biol. Med., 1962, 111, 544. Briefly, male Sprague-Dawley rats weighing between 170 and 190 g were administered test compounds orally 1 hour prior to the subplantar injection of 0.1 ml of 1% sodium carrageenan (lambda carrageenan, Sigma Chemical Co., St Louis, Mo.) into the right hindpaw. Right paw volumes (ml) were measured immediately following injection of carrageenan for baseline volume measurements using a Buxco plethysmograph (Buxco Electronics, Inc., Troy, N.Y.). Three hours after the injection of carrageenan, right paws were remeasured and paw edema calculated for each rat by subtracting the zero time reading from the 3 hour reading. Data are reported as mean percent inhibition +/−SEM. Statistical significance of results was analyzed by Dunnetts multiple comparison test where p<0.05 was considered statistically significant.
# [4] = target: T2, human amnionic whole cell cyclooxygenase-2 (WISH cells) (Homo sapiens, UniProt P35354); assay: IL-1β induced PGE2 production in WISH cells; assay type: cell-based; conditions: read-out: Wish IC50 (parenthetical value)
# T2 construct: endogenous in cells; host or cells: human amnionic WISH cells, induced with IL-1beta
# T2 sequence (P35354 18-604): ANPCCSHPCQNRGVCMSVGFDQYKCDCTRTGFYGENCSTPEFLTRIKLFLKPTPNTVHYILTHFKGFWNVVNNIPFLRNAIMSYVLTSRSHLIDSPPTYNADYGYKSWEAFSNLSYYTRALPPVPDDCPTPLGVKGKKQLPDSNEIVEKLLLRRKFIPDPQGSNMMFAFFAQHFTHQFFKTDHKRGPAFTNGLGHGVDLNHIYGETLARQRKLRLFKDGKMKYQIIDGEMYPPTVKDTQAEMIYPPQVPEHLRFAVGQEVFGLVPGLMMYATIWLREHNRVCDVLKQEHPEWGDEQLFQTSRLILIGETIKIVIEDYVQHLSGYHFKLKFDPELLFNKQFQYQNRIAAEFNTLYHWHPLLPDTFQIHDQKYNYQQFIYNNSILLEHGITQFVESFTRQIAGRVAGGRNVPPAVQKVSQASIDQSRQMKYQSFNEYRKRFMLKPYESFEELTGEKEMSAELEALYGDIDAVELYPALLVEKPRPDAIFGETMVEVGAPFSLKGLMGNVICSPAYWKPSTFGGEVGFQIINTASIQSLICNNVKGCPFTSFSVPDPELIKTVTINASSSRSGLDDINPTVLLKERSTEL
# Summary of the method: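 Confluent (80%) WISH cells were stimulated with 5 ng/ml IL-1β in serum-free Neuman-Tytell medium, with or without test compound in DMSO (0.01% v/v). PGE2 in the culture medium was measured by EIA against standards prepared in the same medium, read by optical density.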
# [5] = target: T3, recombinant human Cox-2 (r-hu Cox-2) (Homo sapiens, UniProt P35354); assay: Recombinant human PGHS-2 enzyme assay (RHUCX2); assay type: biochemical; conditions: for IC50: read-out: RHUCX2 IC50 (parenthetical value); for inhibition at 0.01 µM / inhibition at 0.1 µM / inhibition at 1 µM: read-out: RHUCX2 % Inh. at Dose
# T3 construct: made in house; host or cells: baculovirus/Sf9 insect cells (microsomes)
# T3 sequence (P35354 18-604): T2 sequence (P35354 18-604)
# Summary of the method: (§1)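 PGE2 formed with and without drug quantified by EIA against matrix-matched standards; percent inhibition relative to control mean, IC50 by linear regression.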
# [6] = target: T4, recombinant human Cox-1 (r-hu Cox1) (Homo sapiens, UniProt P23219); assay: Recombinant human PGHS-1 enzyme assay (RHUCX1); assay type: biochemical; conditions: for IC50: read-out: RHUCX1 IC50 (parenthetical value)
# T4 construct: made in house; host or cells: baculovirus/Sf9 insect cells (microsomes)
# T4 sequence (P23219 24-599): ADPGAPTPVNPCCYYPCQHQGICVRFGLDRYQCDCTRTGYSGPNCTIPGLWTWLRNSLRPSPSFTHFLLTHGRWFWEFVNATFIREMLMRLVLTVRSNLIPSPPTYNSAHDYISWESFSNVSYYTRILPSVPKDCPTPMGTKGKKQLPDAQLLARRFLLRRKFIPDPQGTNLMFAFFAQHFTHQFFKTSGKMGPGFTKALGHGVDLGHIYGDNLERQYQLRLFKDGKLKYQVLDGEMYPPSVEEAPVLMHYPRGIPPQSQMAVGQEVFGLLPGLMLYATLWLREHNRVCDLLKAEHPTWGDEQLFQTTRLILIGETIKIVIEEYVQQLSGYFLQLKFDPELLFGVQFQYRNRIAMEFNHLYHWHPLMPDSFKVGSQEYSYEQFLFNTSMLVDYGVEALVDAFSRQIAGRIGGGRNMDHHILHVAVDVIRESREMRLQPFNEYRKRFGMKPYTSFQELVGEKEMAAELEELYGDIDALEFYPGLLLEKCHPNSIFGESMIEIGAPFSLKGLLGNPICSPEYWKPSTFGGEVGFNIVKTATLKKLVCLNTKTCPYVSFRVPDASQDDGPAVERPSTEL
# Summary of the method: as §1
# [7] = 10 mpk oral, 3 hours after carrageenan
# [8] = read-out: RHUCX1 % Inh. at Dose
# T1 sequence (P23219 24-599): as above
SMILES,IC50 [1],IC50 [4],IC50 [5],"inhibition at 100 µM [6, 8]",melting point,"inhibition in vivo at 3 mg/kg ([2]; 3 mpk, rat)","inhibition in vivo at 10 mg/kg [3, 7]",ED50 [2],also measured
"CS(=O)(=O)c1ccc(-c2cnn(-c3ccc(F)c(F)c3)c(=O)c2Oc2ccc(F)cc2)cc1 [Example 109, 2-(3,4-Difluorophenyl)-4-(4-fluorophenoxy)-5-[4-(methylsulfonyl)phenyl]-3(2H)-pyridazinone]",2690 nM,18 nM,147 nM,6%,178 to 180 °C,71%,13%,,
"CS(=O)(=O)c1ccc(-c2cnn(-c3cccc(Cl)c3)c(=O)c2Oc2ccc(F)cc2)cc1 [Example 112, 2-(3-Chlorophenyl)-4-(4-fluorophenoxy)-5-[4-(methylsulfonyl)phenyl]-3(2H)-pyridazinone]",,,136 nM,5%,211 to 213 °C,42.5%,21%,,
"CC(C)CCOc1c(-c2ccc(S(C)(=O)=O)cc2)cnn(-c2cccc(Cl)c2)c1=O [Example 339, 2-(3-Chlorophenyl)-4-(3-methylbutoxy)-5-[4-(methylsulfonyl)phenyl]-3(2H)-pyridazinone]",393 nM,26 nM,88 nM,2%,134 to 135 °C,90.5%,43%,0.58 mg/kg,
"CC(C)CCOc1c(-c2ccc(S(C)(=O)=O)cc2)cnn(-c2ccc(F)c(F)c2)c1=O [Example 347, 2-(3,4-Difluorophenyl)-4-(3-methyl-1-butoxy)-5-[4-(methylsulfonyl)phenyl]-3(2H)-pyridazinone]",,,75 nM,11%,121 to 123 °C,66.5%,27%,,
"CC(=O)CCOc1c(-c2ccc(S(C)(=O)=O)cc2)cnn(-c2ccc(F)c(F)c2)c1=O [Example 467, 2-(3,4-Difluorophenyl)-4-(3-oxo-1-butoxy)-5-[4-(methylsulfonyl)phenyl]-3(2H)-pyridazinone]",,135 nM,1960 nM,4%,134 to 135 °C,,,0.4 mg/kg,CPE ED30 ([3]; oral): ED30 = 1.7
"CC(C)(O)CCOc1c(-c2ccc(S(C)(=O)=O)cc2)cnn(-c2cccc(Cl)c2)c1=O [Example 475, 2-(3-Chlorophenyl)-4-(3-hydroxy-3-methyl-1-butoxy)-5-[4-(methylsulfonyl)phenyl]-3(2H)-pyridazinone]",,440 nM,710 nM,0%,,,33%,1.4 mg/kg,"inhibition at 100 µM ([1]; 100 μM, read-out: HWPX % Inhib. at Dose): 50%"

# Now from value to molecule, other results behind:
IC50 [1],IC50 [4],IC50 [5],"inhibition at 100 µM [6, 8]",melting point,SMILES,"inhibition in vivo at 3 mg/kg ([2]; 3 mpk, rat)","inhibition in vivo at 10 mg/kg [3, 7]",ED50 [2],also measured
,,1090 nM,0%,,CC(C)CCc1c(-c2ccc(S(N)(=O)=O)c(F)c2)cnn(CC(F)(F)F)c1=O [Example 226],40.5%,21%,,
34000 nM,99 nM,161 nM,,145 to 146 °C,CC(C)(C)COc1c(-c2ccc(S(C)(=O)=O)cc2)cnn(CC(F)(F)F)c1=O [Example 261],79%,28%,,"inhibition at 200 µM ([6]; 200 μM, read-out: RHUCX1 % Inh. at Dose): 0%"
,,27 nM,12%,121 to 128 °C,"CC(C)COc1c(-c2ccc(S(C)(=O)=O)cc2)cnn(-c2ccc(F)cc2)c1=O [Example 376, 2-(4-Fluorophenyl)-4-(2-methylpropoxy)-5-[4-(methylsulfonyl)phenyl]-3(2H)-pyridazinone]",77.5%,17%,,
,32 nM,49 nM,,,"NS(=O)(=O)c1ccc(-c2cnn(-c3ccc(F)c(F)c3)c(=O)c2Oc2ccc(F)cc2)cc1 [Example 388, 2-(3,4-Difluophenyl)-4-(4-fluorophenoxy)-5-[4-(aminosulfonyl)phenyl]-3(2H)-pyridazinone]",,,,"HWPX % Inhib. at Dose (μM) ([1]; 0.3 μM): 0 @ .3%; CAP % Inhib. @ 3 mpk ([2]; 3 mpk, rat): 80%; CPE % Inhib. @ 10 mpk [3, 7]: 28%; RHUCX1 % Inh. at Dose (μM) ([6]; 1 μM): 36 @ 1%; RHUCX1 % Inh. at Dose (μM) ([6]; 10 μM): 74 @ 10%"
1950 nM,20 nM,,56%,167 to 170 °C,"CC(C)CCc1c(-c2ccc(S(N)(=O)=O)cc2)cnn(-c2cccc(Cl)c2)c1=O [Example 392, 2-(3-Chlorophenyl)-4-(3-methylbutyl)-5-[4-(aminosulfonyl)phenyl]-3(2H)-pyridazinone]",60%,,,"inhibition at 0.01 µM [5]: 65%; inhibition at 0.1 µM [5]: 82%; inhibition at 10 µM ([6]; 10 μM, read-out: RHUCX1 % Inh. at Dose): 35%"
12700 nM,20 nM,59 nM,22%,180 to 183 °C,"CC(C)CCc1c(-c2ccc(S(N)(=O)=O)cc2)cnn(-c2ccc(F)cc2)c1=O [Example 396, 2-(4-Fluorophenyl)-4-(3-methylbutyl)-5-[4-(aminosulfonyl)phenyl]-3(2H)-pyridazinone]",85%,23%,,
13800 nM,40 nM,,25%,132 to 136 °C,"CC(C)COc1c(-c2ccc(S(N)(=O)=O)cc2)cnn(-c2ccc(F)cc2)c1=O [Example 397, 2-(4-Fluorophenyl)-4-(2-methylpropoxy)-5-[4-(aminosulfonyl)phenyl]-3(2H)-pyridazinone]",70%,,,inhibition at 0.01 µM [5]: 39%; inhibition at 0.1 µM [5]: 58%; inhibition at 1 µM [5]: 93%
902 nM,18 nM,,,169 to 171 °C,"CC(C)COc1c(-c2ccc(S(N)(=O)=O)cc2)cnn(-c2ccc(F)c(F)c2)c1=O [Example 403, 2-(3,4-Difluorophenyl)-4-(2-methylpropoxy)-5-[4-(aminosulfonyl)phenyl]-3(2H)-pyridazinone]",68.5%,43%,0.35 mg/kg,inhibition at 0.01 µM [5]: 36%; inhibition at 0.1 µM [5]: 64%; inhibition at 1 µM [5]: 92%; IC50 [6]: 151000 nM
3500 nM,54 nM,720 nM,,,"CC(=O)NS(=O)(=O)c1ccc(-c2cnn(CC(F)(F)F)c(=O)c2OCC(C)(C)CO)cc1 [Example 528, N-[[4-[2-(2,2,2-Trifluoroethyl)-4-(3-hydroxy-2,2-dimethyl-1-propoxy)-2H-pyridazin-3-on-5-yl]phenyl]sulfonyl]acetamide]",,40%,1.4 mg/kg,IC50 [6]: 3400 nM
